Data published in patent publication US9770026B2, “Substituted pyrimidine compound and uses thereof” (Shenyang Sinochem Agrochemicals R&D Co., Ltd., priority 2012, dated 2017).

Assays:
wheat powdery mildew = experiment: protectant activity in vivo against wheat powdery mildew; details: for control effect against wheat powdery mildew (%): protectant activity
corn rust = experiment: protectant activity in vivo against corn rust; details: for control effect against corn rust (%): protectant activity
carmine spider mite = experiment: bioactivity test against carmine spider mite, airbrush spray; format: in vivo; details: for control against carmine spider mite: mortality after 72 hrs
Method: (§1) Compounds were dissolved in mixed solvent (acetone:methanol=1:1), and diluted to required concentration with water containing 0.1% of tween 80.
(§2) Diamond back moth, armyworm, peach aphid and carmine spider mite were used as targets and the method of spraying by airbrush was used for determination of insecticidal biassays.
The method: Broadbean shoots with two true leaves in pot were taken, the healthy adults of carmine spider mite were inoculated to the leaves. The adults were counted and then sprayed with airbrush at the pressure of 0.7 kg/cm^2 and at dose of 0.5 ml. 3 replicates were set for each treatment. And then they were maintained in standard observation room. Scores were conducted and mortalities were calculated after 72 hrs.

[1] = test system: Green peach aphids (Myzus Persicae Sulzer); experiment: bioactivity test against green peach aphid, airbrush foliar spray; format: in vivo; details: for Insecticidal activity against peach aphid (%): contrastive test
Method: as §1, §2
Method: Filter papers were put in culture dishes (Diameter=6 cm), and water was dripped on filter papers for preserving moisture. Green peach aphids (Myzus Persicae Sulzer) were maintained on cabbage. Leaves (Diameter=3 cm) of approximately 15-30 aphids were put in the culture dishes. Bioactivity tests were used the method of Airbrush Foliar Spray, pressure=10 psi (0.7 kg/cm2), spray volume=0.5 mL. The studies were conducted at […] 25±1 C in incubator cabinets with 60±5% RH. Survey the survival aphids after 48 hrs and calculate the death rates.

armyworm = experiment: bioactivity test against armyworm, airbrush spray; format: in vivo
Method: as §1, §2
The method of spraying by airbrush: The corn leaves were made into plates of 2 cm diameter by use of punch. A test solution (0.5 ml) was sprayed by airbrush at the pressure of 0.7 kg/cm^2 to both sides of every plate. 10 Second instar larvae were put into the petri-dishes after the leaf disc air-dried and 3 replicates were set for each treatment. Then the insects were maintained in observation room (25 °C, 60˜70% R.H.). Scores were conducted and mortalities were calculated after 72 h.

cucumber downy mildew = experiment: protectant activity in vivo against cucumber downy mildew; details: for pest or weed control at 100 ppm: read-out: protectant activity against cucumber downy mildew in vivo, 100 ppm
[2] = 10 ppm, death rate after 48 hrs
[3] = 100 ppm, death rate after 48 hrs
[4] = 600 ppm, death rate after 48 hrs

CC(F)c1ncnc(NCCc2ccc(Oc3ncc(C(F)(F)F)cc3Cl)cc2)c1Cl (stereo not shown) [CK2, reference compound]
23%: Insecticidal activity against peach aphid (%) ([1]; 2.5 mg/L)
95%: Insecticidal activity against peach aphid (%) ([1]; 10 mg/L)
100%: control effect against wheat powdery mildew (%) (wheat powdery mildew; 100 mg/L) | control effect against wheat powdery mildew (%) (wheat powdery mildew; 400 mg/L) | control effect against corn rust (%) (corn rust; 25 mg/L) | control effect against corn rust (%) (corn rust; 100 mg/L) | control effect against corn rust (%) (corn rust; 400 mg/L) | Insecticidal activity against carmine spider mite (% ) (carmine spider mite; 100 mg/L, contrastive test) | Insecticidal activity against carmine spider mite (% ) (carmine spider mite; 600 mg/L, contrastive test) | Insecticidal activity against peach aphid (%) ([1]; 100 mg/L) | Insecticidal activity against peach aphid (%) ([1]; 600 mg/L)
0%: control effect against wheat powdery mildew (%) (wheat powdery mildew; 6.25 mg/L) | Insecticidal activity against peach aphid (%) ([1]; 1.25 mg/L)
80%: control effect against wheat powdery mildew (%) (wheat powdery mildew; 25 mg/L)
85%: control effect against corn rust (%) (corn rust; 6.25 mg/L)
32%: Insecticidal activity against carmine spider mite (% ) (carmine spider mite; 10 mg/L, contrastive test)
37%: Insecticidal activity against peach aphid (%) ([1]; 5 mg/L)

CCc1c(Cl)c(NCCc2ccc(Oc3ccc(C(F)(F)F)cc3)cc2)nc[n+]1CC(=O)c1ccccc1.[Br-] [CK5, reference compound]
40%: control effect against corn rust (%) (corn rust; 25 mg/L)
30%: control effect against corn rust (%) (corn rust; 6.25 mg/L)
56%: Insecticidal activity against armyworm (%) (armyworm; 100 mg/L)
95%: control effect against corn rust (%) (corn rust; 400 mg/L)
100%: Insecticidal activity against armyworm (%) (armyworm; 600 mg/L)
0%: Insecticidal activity against armyworm (%) (armyworm; 10 mg/L)
98%: control effect against corn rust (%) (corn rust; 100 mg/L)

CCc1ncnc(NCc2ccc(Oc3ncc(Cl)cc3Cl)cc2)c1Cl [CK64, reference compound]
56%: pest or weed control at 600 µg/mL (carmine spider mite; Tetranychus cinnabarinus, 72 h, 600 mg/L, contrastive test, read-out: Insecticidal activity against carmine spider mite (% ))
0%: pest or weed control at 600 µg/mL (armyworm; 72 h, 600 mg/L, read-out: Insecticidal activity against armyworm (%))

CCOC(=O)c1ccc(Oc2ccc(CCNc3ncnc(CC)c3Cl)cc2)nc1 [Compound I-267]
100%: protectant activity against wheat powdery mildew in vivo (wheat powdery mildew; 100 ppm) | protectant activity against wheat powdery mildew in vivo (wheat powdery mildew; 400 ppm) | protectant activity against corn rust in vivo (corn rust; 400 ppm) | control against carmine spider mite (carmine spider mite; 600 ppm) | control (test results against green peach aphid) [1, 2] | control (test results against green peach aphid) [1, 3] | control (test results against green peach aphid) [1, 4]

Cc1ncnc(NCCc2ccc(Oc3ncccc3C(F)(F)F)cc2)c1Cl [Compound I-929]
100%: protectant activity against wheat powdery mildew in vivo (wheat powdery mildew; 400 ppm) | protectant activity against corn rust in vivo (corn rust; 400 ppm) | control against carmine spider mite (carmine spider mite; 600 ppm) | control (test results against green peach aphid) [1, 4]

CCc1ncnc(NCCc2ccc(Oc3ncccc3C(F)(F)F)cc2)c1Cl [Compound I-987]
100%: protectant activity against wheat powdery mildew in vivo (wheat powdery mildew; 100 ppm) | protectant activity against wheat powdery mildew in vivo (wheat powdery mildew; 400 ppm) | protectant activity against corn rust in vivo (corn rust; 100 ppm) | protectant activity against corn rust in vivo (corn rust; 400 ppm) | Insecticidal activity against carmine spider mite (% ) (carmine spider mite; 100 mg/L, contrastive test) | Insecticidal activity against carmine spider mite (% ) (carmine spider mite; 600 mg/L, contrastive test) | control against carmine spider mite (carmine spider mite; 100 ppm) | control against carmine spider mite (carmine spider mite; 600 ppm) | control (test results against green peach aphid) [1, 2] | control (test results against green peach aphid) [1, 3] | control (test results against green peach aphid) [1, 4] | protectant activity against cucumber downy mildew in vivo (cucumber downy mildew; 100 ppm) | protectant activity against cucumber downy mildew in vivo (cucumber downy mildew; 400 ppm)
80%: Insecticidal activity against carmine spider mite (% ) (carmine spider mite; 10 mg/L, contrastive test)

CCc1ncnc(NCCc2ccc(Oc3ncc(C(F)(F)F)cc3Cl)c(Cl)c2)c1Cl [Compound I-1472]
100%: protectant activity against wheat powdery mildew in vivo (wheat powdery mildew; 100 ppm) | protectant activity against wheat powdery mildew in vivo (wheat powdery mildew; 400 ppm) | protectant activity against corn rust in vivo (corn rust; 400 ppm) | control (test results against armyworm) (armyworm; 600 ppm, mortality after 72 h) | control against carmine spider mite (carmine spider mite; 600 ppm) | control (test results against green peach aphid) [1, 2] | control (test results against green peach aphid) [1, 3] | control (test results against green peach aphid) [1, 4]

Cc1ncnc(NCCc2ccc(Oc3ccc(C(F)(F)F)cn3)cc2)c1Br [Compound I-1762]
100%: protectant activity against wheat powdery mildew in vivo (wheat powdery mildew; 400 ppm) | protectant activity against corn rust in vivo (corn rust; 400 ppm) | control against carmine spider mite (carmine spider mite; 100 ppm) | control against carmine spider mite (carmine spider mite; 600 ppm) | control (test results against green peach aphid) ([1]; 5 ppm, death rate after 48 hrs) | control (test results against green peach aphid) [1, 2] | control (test results against green peach aphid) [1, 3] | control (test results against green peach aphid) [1, 4] | protectant activity against cucumber downy mildew in vivo (cucumber downy mildew; 400 ppm)

FC(F)(F)c1ccc(Oc2ccc(CCNc3ncnc(C(F)(F)F)c3Cl)cc2)nc1 [Compound I-2748]
80 to 99%: pest or weed control at 400 ppm (wheat powdery mildew; Triticum aestivum, 168 h, read-out: protectant activity against wheat powdery mildew in vivo, 400 ppm) | pest or weed control at 400 ppm (corn rust; Zea mays, 168 h, read-out: protectant activity against corn rust in vivo, 400 ppm) | pest or weed control at 600 ppm (armyworm; 72 h, 600 ppm, mortality after 72 h)
100%: pest or weed control at 600 ppm ([1]; Myzus persicae, foliar, 48 h, 600 ppm, death rate after 48 hrs) | pest or weed control at 50 ppm (cucumber downy mildew; Cucumis sativus, 168 h, read-out: protectant activity against cucumber downy mildew in vivo, 50 ppm) | pest or weed control at 100 ppm (cucumber downy mildew; Cucumis sativus, 168 h) | pest or weed control at 400 ppm (cucumber downy mildew; Cucumis sativus, 168 h, read-out: protectant activity against cucumber downy mildew in vivo, 400 ppm)

Cc1ncnc(NCCc2ccc(Oc3ccc(C(F)(F)F)cn3)cc2)c1Cl.Cl [Compound I-6730]
100%: protectant activity against wheat powdery mildew in vivo (wheat powdery mildew; 25 ppm) | protectant activity against wheat powdery mildew in vivo (wheat powdery mildew; 100 ppm) | protectant activity against wheat powdery mildew in vivo (wheat powdery mildew; 400 ppm) | protectant activity against corn rust in vivo (corn rust; 400 ppm) | control against carmine spider mite (carmine spider mite; 600 ppm) | control (test results against green peach aphid) [1, 4] | protectant activity against cucumber downy mildew in vivo (cucumber downy mildew; 25 ppm) | protectant activity against cucumber downy mildew in vivo (cucumber downy mildew; 50 ppm) | protectant activity against cucumber downy mildew in vivo (cucumber downy mildew; 400 ppm) | pest or weed control at 100 ppm (cucumber downy mildew; Cucumis sativus, 168 h)
80 to 99%: pest or weed control at 6.25 ppm (wheat powdery mildew; Triticum aestivum, 168 h, read-out: protectant activity against wheat powdery mildew in vivo, 6.25 ppm)

Cc1ncnc(NCCc2ccc(Oc3ccc(Cl)cc3Cl)cc2)c1Cl [II-21]
100%: protectant activity against corn rust in vivo (corn rust; 100 ppm) | protectant activity against corn rust in vivo (corn rust; 400 ppm) | control (test results against armyworm) (armyworm; 600 ppm, mortality after 72 h) | control against carmine spider mite (carmine spider mite; 100 ppm) | control against carmine spider mite (carmine spider mite; 600 ppm) | control (test results against green peach aphid) [1, 4] | protectant activity against cucumber downy mildew in vivo (cucumber downy mildew; 50 ppm) | protectant activity against cucumber downy mildew in vivo (cucumber downy mildew; 100 ppm) | protectant activity against cucumber downy mildew in vivo (cucumber downy mildew; 400 ppm)

CCc1ncnc(NCCc2ccc(Oc3ccc(C(F)(F)F)cc3Cl)cc2)c1Cl [II-432]
50%: control effect against wheat powdery mildew (%) (wheat powdery mildew; 0.4 mg/L)
75%: control effect against corn rust (%) (corn rust; 1.6 mg/L)
80%: control effect against wheat powdery mildew (%) (wheat powdery mildew; 1.6 mg/L)
76%: Insecticidal activity against carmine spider mite (% ) (carmine spider mite; 10 mg/L, contrastive test)
15%: control effect against corn rust (%) (corn rust; 0.4 mg/L)
100%: control effect against wheat powdery mildew (%) (wheat powdery mildew; 6.25 mg/L) | control effect against wheat powdery mildew (%) (wheat powdery mildew; 25 mg/L) | control effect against wheat powdery mildew (%) (wheat powdery mildew; 100 mg/L) | control effect against wheat powdery mildew (%) (wheat powdery mildew; 400 mg/L) | protectant activity against wheat powdery mildew in vivo (wheat powdery mildew; 6.25 ppm) | protectant activity against wheat powdery mildew in vivo (wheat powdery mildew; 25 ppm) | protectant activity against wheat powdery mildew in vivo (wheat powdery mildew; 100 ppm) | protectant activity against wheat powdery mildew in vivo (wheat powdery mildew; 400 ppm) | control effect against corn rust (%) (corn rust; 6.25 mg/L) | control effect against corn rust (%) (corn rust; 25 mg/L) | control effect against corn rust (%) (corn rust; 100 mg/L) | control effect against corn rust (%) (corn rust; 400 mg/L) | protectant activity against corn rust in vivo (corn rust; 6.25 ppm) | protectant activity against corn rust in vivo (corn rust; 25 ppm) | protectant activity against corn rust in vivo (corn rust; 100 ppm) | protectant activity against corn rust in vivo (corn rust; 400 ppm) | Insecticidal activity against carmine spider mite (% ) (carmine spider mite; 100 mg/L, contrastive test) | Insecticidal activity against carmine spider mite (% ) (carmine spider mite; 600 mg/L, contrastive test) | control against carmine spider mite (carmine spider mite; 100 ppm) | control against carmine spider mite (carmine spider mite; 600 ppm) | control (test results against green peach aphid) [1, 3] | control (test results against green peach aphid) [1, 4] | protectant activity against cucumber downy mildew in vivo (cucumber downy mildew; 400 ppm)

Cc1ncnc(NCCc2ccc(Oc3cccc(F)c3)c(Cl)c2)c1Cl [II-559]
100%: control (test results against armyworm) (armyworm; 600 ppm, mortality after 72 h)
